Measured values: US9296747B1, “Piperidylpyrimidine derivatives as modulators of protein kinase inhibitors and of vascular endothelial growth factor receptor 2” (Allergan, Inc., priority 2014, dated 2016)

Experiments:
[1] = target: VEGFR2 (purified cytoplasmic domain KDR protein) (Homo sapiens (Human), UniProt P35968); assay: VEGFR2 Kinase Assay (biochemical KDR kinase, poly-Glu-Tyr ELISA); conditions: 2.7 μM ATP, 15 minute incubation at 30° C.
Description: VEGFR2 Kinase Assay […] Test compounds were reconstituted in 100% DMSO and added to the reaction to give a final DMSO concentration of 5%. […] Following a 15 minute incubation at 30° C., the reactions were washed 2 mls per well PBS-T. 100 μl of a monoclonal anti-phosphotyrosine antibody-peroxidase conjugate diluted 1:10,000 in PBS-T was added to the wells for 30 minutes. Following a 2 mls per well wash with PBS-Tween-20, 100 μl of 0-Phenylenediamine Dihydrochloride in phosphate-citrate buffer, containing urea hydrogen peroxide, was added to the wells for 7-10 minutes as a colorimetric substrate for the peroxidase. The reaction was terminated by the addition of 100 μl of 2.5N H2SO4 to each well and read using a microplate ELISA reader set at 492 nm. IC50 values for compound inhibition were calculated directly from graphs of optical density (arbitrary units) versus compound concentration following subtraction of blank values.

[2] = target: recombinant human GST-PKR (Homo sapiens (Human), UniProt P19525); assay: PKR KinaseGlo Assay; type: biochemical; conditions: 6.6 uM ATP, 10 minutes at room temperature
Sequence of recombinant human GST-PKR (P19525 whole entry): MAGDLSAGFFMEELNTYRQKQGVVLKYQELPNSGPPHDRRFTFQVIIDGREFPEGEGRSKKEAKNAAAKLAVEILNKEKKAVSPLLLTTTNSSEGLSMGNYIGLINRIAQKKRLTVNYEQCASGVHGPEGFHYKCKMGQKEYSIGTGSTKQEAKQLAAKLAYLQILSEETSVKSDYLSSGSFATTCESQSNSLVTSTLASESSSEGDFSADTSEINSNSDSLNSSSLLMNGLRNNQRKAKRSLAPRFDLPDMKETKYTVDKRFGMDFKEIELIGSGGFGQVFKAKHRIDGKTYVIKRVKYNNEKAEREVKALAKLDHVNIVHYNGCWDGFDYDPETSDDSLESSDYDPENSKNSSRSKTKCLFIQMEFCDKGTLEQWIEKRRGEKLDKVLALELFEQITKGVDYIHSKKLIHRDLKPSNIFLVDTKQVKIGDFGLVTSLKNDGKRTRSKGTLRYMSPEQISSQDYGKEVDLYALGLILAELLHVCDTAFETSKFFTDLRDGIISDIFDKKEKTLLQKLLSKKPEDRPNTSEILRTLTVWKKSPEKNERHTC
Description: Commercially available recombinant human GST-PKR (SignalChem, Canada; 1.5 uM-2 uM stock) is diluted to 500 nM in assay buffer (20 mM Tris-HCl, pH 7.2, 10 mM KCl, 10 mM MgCl2, 10% glycerol). Preactivated PKR is dispensed to 384/96-well black plates at 3.125/12.5 uls/well using the liquid handler Janus. Appropriate dilutions of inhibitors are added to 384/96-well plate followed by 6.6 uM ATP (final) and incubated for 10 minutes at room temperature. The remaining ATP/well is determined by adding 6.25/25 uls/well Kinase-Glo assay mix (Promega) and luminescence is measured on EnVision luminescence plate reader (integration time, 0.2 sec; Perkin-Elmer, Massachusetts, USA). The % inhibition for the compounds is calculated using ATP only (100% inhibition) and PKR+ATP (0% inhibition). […] values are determined by plotting % activity versus inhibitor concentration. Curves are fitted using Activity base XLfit (IDBS, UK) using the formula— • 4 Parameter Logistic Model fit=(A+((B−A)/(1+(10^((C−x)*D))))) inv=(C−(log(((B−A)/(y−A))−1)/D)) res=(y−fit)

[3] = target: PDGFRβ (purified cytoplasmic domain PDGFR-b protein) (Homo sapiens (Human), UniProt P09619); assay: PDGFRβ Kinase Assay (biochemical, poly-Glu-Tyr ELISA); conditions: 36 μM ATP, 60 minute incubation at 30° C.
Sequence of PDGFRβ (purified cytoplasmic domain PDGFR-b protein) (P09619 554-1106): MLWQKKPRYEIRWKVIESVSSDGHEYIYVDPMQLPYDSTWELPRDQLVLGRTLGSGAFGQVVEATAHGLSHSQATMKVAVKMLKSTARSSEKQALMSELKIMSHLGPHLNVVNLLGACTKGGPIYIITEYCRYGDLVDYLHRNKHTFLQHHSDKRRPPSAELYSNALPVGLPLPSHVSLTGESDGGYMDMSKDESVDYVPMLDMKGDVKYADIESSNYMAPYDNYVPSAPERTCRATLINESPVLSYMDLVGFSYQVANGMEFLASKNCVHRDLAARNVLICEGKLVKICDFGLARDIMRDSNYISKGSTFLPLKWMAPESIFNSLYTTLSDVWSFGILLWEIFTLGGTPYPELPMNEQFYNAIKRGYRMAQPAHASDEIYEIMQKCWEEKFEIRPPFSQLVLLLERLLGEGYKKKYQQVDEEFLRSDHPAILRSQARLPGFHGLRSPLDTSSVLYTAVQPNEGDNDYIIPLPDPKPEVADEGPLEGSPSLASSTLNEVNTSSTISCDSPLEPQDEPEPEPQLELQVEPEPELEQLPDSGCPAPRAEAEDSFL
Description: Biochemical PDGFRβ kinase assays were performed in 96 well microtiter plates that were coated overnight with 75 μg of poly-Glu-Tyr (4:1) in 10 mM Phosphate Buffered Saline (PBS), pH 7.4. The coated plates were washed with 2 mls per well PBS+0.05% Tween-20 (PBS-T), blocked by incubation with PBS containing 1% BSA, then washed with 2 mls per well PBS-T prior to starting the reaction. Reactions were carried out in 100 μL reaction volumes containing 36 μM ATP in kinase buffer (50 mM Hepes buffer pH 7.4, 20 mM MgCl2, 0.1 mM MnCl2 and 0.2 mM Na3VO4). Test compounds were reconstituted in 100% DMSO and added to the reaction to give a final DMSO concentration of 5%. Reactions were initiated by the addition 20 ul per well of kinase buffer containing 200-300 ng purified cytoplasmic domain PDGFR-b protein (Millipore). Following a 60 minute incubation at 30° C., the reactions were washed 2 mls per well PBS-T. 100 μl of a monoclonal anti-phosphotyrosine antibody-peroxidase conjugate diluted 1:10,000 in PBS-T was added to the wells for 30 minutes. Following a 2 mls per well wash with PBS-Tween-20, 100 μl of 0-Phenylenediamine Dihydrochloride in phosphate-citrate buffer, containing urea hydrogen peroxide, was added to the wells for 7-10 minutes as a colorimetric substrate for the peroxidase. The reaction was terminated by the addition of 100 μl of 2.5N H2SO4 to each well and read using a microplate ELISA reader set at 492 nm. IC50 values for compound inhibition were calculated directly from graphs of optical density (arbitrary units) versus compound concentration following subtraction of blank values.

Sequence of VEGFR2 (purified cytoplasmic domain KDR protein) (P35968 786-1356): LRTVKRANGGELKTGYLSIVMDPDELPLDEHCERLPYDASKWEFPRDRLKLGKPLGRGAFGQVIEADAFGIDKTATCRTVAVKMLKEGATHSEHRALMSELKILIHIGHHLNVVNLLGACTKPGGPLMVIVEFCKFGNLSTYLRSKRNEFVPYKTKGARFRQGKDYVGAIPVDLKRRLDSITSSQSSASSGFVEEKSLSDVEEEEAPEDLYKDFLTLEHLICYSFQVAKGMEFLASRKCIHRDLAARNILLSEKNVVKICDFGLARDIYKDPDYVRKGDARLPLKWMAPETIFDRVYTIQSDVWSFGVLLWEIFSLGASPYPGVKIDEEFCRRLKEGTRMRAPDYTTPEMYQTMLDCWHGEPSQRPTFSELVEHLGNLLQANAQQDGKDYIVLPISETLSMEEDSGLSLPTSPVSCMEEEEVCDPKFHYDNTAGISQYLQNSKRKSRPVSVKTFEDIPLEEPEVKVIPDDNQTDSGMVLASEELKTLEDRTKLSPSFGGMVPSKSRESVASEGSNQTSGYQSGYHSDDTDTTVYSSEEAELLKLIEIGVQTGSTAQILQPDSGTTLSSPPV

Row | Molecule | IC50 [1] | IC50 [2] | IC50 [3]
1 | N-phenyl-6-(pyridin-3-ylcarbonyl)-5,6,7,8-tetrahydropyrido[4,3-d]pyrimidin-2-amine [Example 2] | > 100000 nM | 89 nM | –
2 | O=C(Nc1cccnc1)N1CCc2nc(Nc3ccccc3)ncc2C1 [Example 3, 2-anilino-N-pyridin-3-yl-7,8-dihydropyrido[4,3-d]pyrimidine-6(5H)-carboxamide] | > 10000 nM | 282 nM | –
3 | COc1cc(Nc2ncc3c(n2)CCN(C(=O)c2occc2C)C3)cc(OC)c1OC [Example 11, 6-(3-methyl-2-furoyl)-N-(3,4,5-trimethoxyphenyl)-5,6,7,8-tetrahydropyrido[4,3-d]pyrimidin-2-amine] | 6 nM | – | 239 nM
4 | COc1cc(Nc2ncc3c(n2)CCN(C(=O)c2ccccn2)C3)cc(OC)c1OC [Example 15, 6-(pyridin-2-ylcarbonyl)-N-(3,4,5-trimethoxyphenyl)-5,6,7,8-tetrahydropyrido[4,3-d]pyrimidin-2-amine] | 1850 nM | 2820 nM | –
5 | COc1ccc(Nc2ncc3c(n2)CCN(C(=O)c2cccnc2)C3)cc1 [Example 5, N-(4-methoxyphenyl)-6-(pyridin-3-ylcarbonyl)-5,6,7,8-tetrahydropyrido[4,3-d]pyrimidin-2-amine] | 5 nM | > 40000 nM | 17 nM
6 | COc1cc(Nc2ncc3c(n2)CCN(C(=O)c2cc(C)nn2C)C3)cc(OC)c1OC [Example 12, 6-[(1,3-dimethyl-1H-pyrazol-5-yl)carbonyl]-N-(3,4,5-trimethoxyphenyl)-5,6,7,8-tetrahydropyrido[4,3-d]pyrimidin-2-amine] | 5 nM | – | 19 nM
7 | Cn1nccc1Nc1ncc2c(n1)CCN(C(=O)c1cccnc1)C2 [Example 8, N-(1-methyl-1H-pyrazol-5-yl)-6-(pyridin-3-ylcarbonyl)-5,6,7,8-tetrahydropyrido[4,3-d]pyrimidin-2-amine] | 16 nM | – | 130 nM
8 | COc1ccc(Nc2ncc3c(n2)CCN(C(=O)c2cccnc2)C3)cc1OC [Example 16, N-(3,4-dimethoxyphenyl)-6-(pyridin-3-ylcarbonyl)-5,6,7,8-tetrahydropyrido[4,3-d]pyrimidin-2-amine] | – | 176 nM | –
9 | COc1cc(Nc2ncc3c(n2)CCN(C(=O)c2cccnc2)C3)cc(OC)c1 [Example 17, N-(3,5-dimethoxyphenyl)-6-(pyridin-3-ylcarbonyl)-5,6,7,8-tetrahydropyrido[4,3-d]pyrimidin-2-amine] | – | 130 nM | –
10 | COc1cccc(Nc2ncc3c(n2)CCN(C(=O)c2cccnc2)C3)c1 [Example 6, N-(3-methoxyphenyl)-6-(pyridin-3-ylcarbonyl)-5,6,7,8-tetrahydropyrido[4,3-d]pyrimidin-2-amine] | 443 nM | > 40000 nM | –
11 | COc1cc(Nc2ncc3c(n2)CCN(C(=O)c2cccs2)C3)cc(OC)c1OC [Example 13, 6-(2-thienylcarbonyl)-N-(3,4,5-trimethoxyphenyl)-5,6,7,8-tetrahydropyrido[4,3-d]pyrimidin-2-amine] | 8 nM | – | –
12 | COc1ccccc1Nc1ncc2c(n1)CCN(C(=O)c1cccnc1)C2 [Example 7, N-(2-methoxyphenyl)-6-(pyridin-3-ylcarbonyl)-5,6,7,8-tetrahydropyrido[4,3-d]pyrimidin-2-amine] | 10 nM | – | 244 nM
